Data as given in paper PMC6029141, “Population Pharmacokinetics of Vancomycin in Chinese ICU Neonates: Initial Dosage Recommendations” (Frontiers in Pharmacology, 2018).
Like-named read-outs stand apart in the source and are kept apart here.

Tests used:
[1] = Vancomycin trough and peak concentrations, fluorescence polarization immunoassay; format: in vivo, Chinese neonates; details: after at least four doses, 10–15 mg/kg q8h or q12h, FPIA
Description: Concentrations of vancomycin were determined using the fluorescence polarization immunoassay with an ARCHITECT i2000SR (Abbott Laboratories, Chicago, IL, USA). The limit of detection was 1 mg/L, and the calibration range of this assay was 3 to 50 mg/L. The intra-day and inter-day coefficients of variation (CVs) were all < 20%.

[2] = cited from earlier work
From the text: The maximum a posteriori Bayesian estimation method has already been used to support vancomycin dosing decisions in adults (Deng et al., [2013]; Jacqz-Aigrain et al., [2015]) and children (Le et al., [2014]). To obtain accurate estimation with this method for individualized therapy, it is crucial that reliable population pharmacokinetic characteristics are known for the target patients. […] (H ...

[3] = Population pharmacokinetic modeling of vancomycin (NONMEM, FOCE-I, one-compartment, first-order elimination); details: for θ4, volume of distribution V / θ5, exponent of body weight on V / θ1, clearance CL: final model
Description: Chinese neonates who received vancomycin in the neonatal ICU at Shanghai Children's Hospital (Shanghai, China) between January 2013 and December 2016 were enrolled. Patients included in this study were neonates with PMA ≤ 48 weeks for preterm neonates and with postnatal age (PNA) ≤ 28 days for term neonates. All patients were treated with vancomycin for at least 3 days, and at least one vancomycin concentration was assayed. Patients with extracorporeal membrane oxygenation or continuous renal replacement therapy were excluded from the current study. The following information was retrospectively collected from electronic medical records: gestational age (GA), PMA, PNA, body weight (WT), dosing history and concentration of vancomycin, serum creatinine (Scr) levels, clinical laboratory tests of other renal and hepatic functions, and co-administered medications.
The dose of vancomycin (Vancocin, Lilly, S.A, Suzhou, China) was 10–15 mg/kg, which was administrated every 8 h (q8h) or every 12 h (q12h) with a 2-h infusion, in accordance with local protocols. Blood samples were collected 1 h after completion of drug infusion (peak concentration) or half an hour before the start of vancomycin administration (trough concentration) for each patient. Trough and peak concentrations were obtained after at least four repeated doses. Potential outlier data points (observations) were identified by employing conditional weighted residual (CWRES) results outside a range of ± 6 (Byon et al., [2013]).
Population pharmacokinetic modeling was performed using the NONMEM program (Version 7.4; Icon Inc, PA, USA) compiled with gFortran (Version 4.9.2; http://www.gfortran.org). R (Version 3.3.1; http://www.r-project.org) and the Xpose package (Version 4.5.3; http://xpose.sourceforge.net) were used for visual diagnosis. The first-order conditional estimation method with η–ε interaction (FOCE-I) was used throughout the model-building procedure (Wählby et al., [2001]).
The vancomycin concentration data were fitted by the one or two compartment with a first-order elimination model. NONMEM subroutines were specified as ADVAN1-TRANS2 or ADVAN3-TRANS4, respectively.
An exponential model (Equation 1) was used to account for inter-individual variability (IIV):
Residual unexplained variability was tested by an additive model (Equation 2), exponential model (Equation 3), or a combined additive and exponential model (Equation 4):
Four different models based on allometric scaling were tested using Equation (5): (5) Pi= TV(P)×(COV/COVmedian)^θ×MF
The robustness of the model was assessed using a nonparametric bootstrap (Ette, [1997]), with repetition of 2000 NONMEM runs of the final model. The bootstrap median parameter values and the percentile bootstrap 95% confidence intervals were compared with the respective values estimated from the final model.

[4] = Model III, WT-dependent exponent model
[5] = Model IV, age-dependent exponent model

SMILES: CN[C@H](CC(C)C)C(=O)N[C@H]1C(=O)N[C@@H](CC(N)=O)C(=O)N[C@H]2C(=O)N[C@H]3C(=O)N[C@H](C(=O)N[C@H](C(=O)O)c4cc(O)cc(O)c4-c4cc3ccc4O)[C@H](O)c3ccc(c(Cl)c3)Oc3cc2cc(c3O[C@@H]2O[C@H](CO)[C@@H](O)[C@H](O)[C@H]2O[C@H]2C[C@](C)(N)[C@H](O)[C@H](C)O2)Oc2ccc(cc2Cl)[C@H]1O [vancomycin]
- Peak concentration, median (range) ([1]; 1 h after completion of 2-h infusion, 90 peak samples): 20.3 (4.09–51.9) mg/L
- Peak concentration ([1]; column 'Modeling group' (value ± spread), 1 h after completion of 2-h infusion, 90 peak samples): 22.3 ± 11.0 mg/L
- Trough concentration ([1]; column 'Modeling group' (value ± spread), half an hour before administration, 2-h infusion, 75 trough samples, 80 neonates): 11.2 ± 7.92 mg/L
- Trough concentration, median (range) ([1]; half an hour before administration, 2-h infusion, 75 trough samples): 9.15 (3.14–42.9) mg/L
- clearance (CL) ([2]; adult Caucasian patients, first of two values, ref Guay et al., [1993], Sánchez et al., [2010]): 4.03 ± 1.7 L/h
- clearance (CL) ([2]; adult Caucasian patients, second of two values, ref Guay et al., [1993], Sánchez et al., [2010]): 5.83 ± 2.39 L/h
- clearance (CL) ([2]; adult Chinese patients, second of two values, ref He et al., [2014], Lin et al., [2015]): 6.06 ± 2.46 L/h
- average clearance across all three populations ([2]; neonatal patient with weight of 3 kg and PMA of 40 weeks, Caucasian, Japanese, Malaysian neonates, ref Seay et al., [1994] to Lo et al., [2010] (b5)): 0.08 to 0.50 L/h
- k, exponent for body weight (RSE%) ([3]; Model I, simple exponent model): 1.57 (10.9%)
- CLp typical value of apparent clearance (RSE%) ([3]; Model I, simple exponent model, MF = 1): 0.319 (5.1%) L/h
- Hill (RSE%) ([3]; Model II, maturation model): 4.45 (105%)
- TM50, age at which clearance maturation reaches 50% of that of adults (RSE%) ([3]; Model II, maturation model): 46.9 (102%)
- CLp typical value of apparent clearance (RSE%) ([3]; Model II, maturation model, k fixed 0.75): 0.911 (235%) L/h
- k50, body weight at which there is a 50 % decrease in the kmax (RSE%) ([3]; Model III): 12.7 (53.1%)
- kmax, maximum decrease of the exponent (RSE%) ([3]; Model III): 1.08 (25%)
- θ0, exponent at a theoretical WT of 0 kg (RSE%) ([3]; Model III): 1.57 (10.9%)
- CLp typical value of apparent clearance (RSE%) [3, 4]: 0.319 (5.1%) L/h
- Hill (RSE%) [3, 4]: 23.6 (17.2%)
- k50, age at which there is a 50 % decrease in the kmax (RSE%) ([3]; Model IV): 62.3 (22%)
- kmax, maximum decrease of the exponent (RSE%) ([3]; Model IV): 1.08 (25%)
- θ0, exponent at age at birth (RSE%) ([3]; Model IV): 1.57 (10.9%)
- CLp typical value of apparent clearance (RSE%) [3, 5]: 0.319 (5.1%) L/h
- Hill (RSE%) [3, 5]: 60.7 (23.4%)
- θ4, volume of distribution V ([3]; NONMEM estimate, WT 2.9 kg): 2.63 L
- θ5, exponent of body weight on V ([3]; NONMEM estimate, [WT(kg)/2.9]^θ5): 1.05
- θ1, clearance CL ([3]; NONMEM estimate, typical neonate WT 2.9 kg, Scr 23.3 μmol/L): 0.309 L/h
- θ1, clearance CL ([3]; bootstrap median, 2000 runs): 0.308 L/h
- θ4, volume of distribution V ([3]; bootstrap median, 2000 runs): 2.62 L
- θ5, exponent of body weight on V ([3]; bootstrap median, 2000 runs): 1.06
